Test results: patent US20240327393A1 (SIRONAX LTD., priority 2021, published 2024)

test system: HT-1080 (ATCC, CCL-121) cells; test: HT-1080 cell viability assay with ferroptosis inducer RSL3 (Cell Titer-Glo); assay type: cell-based; details: HT-1080 cells treated with RSL3; 3-fold, 10-point dilution, 1.1 μM highest concentration; Table 3; read-out: EC50 (nM), ferroptosis inhibitory activity
How it was run: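 EC50 was derived by sigmoidal dose-response regression of CellTiter-Glo luminescence viability, expressed relative to untreated wells. Compounds were tested in a ten-point, threefold dilution series (highest 1.1 μM) in the presence of the ferroptosis inducer RSL3. HT-1080 cells had been seeded at 6000 per well and grown overnight first.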

SMILES	EC50
Cc1cc(N2CCC(C(F)(F)F)CC2)ccc1Nc1ccc2c(c1)CNC2 [Compound 544, N-(2-methyl-4-(4-(trifluoromethyl)piperidin-1-yl)phenyl)isoindolin-5-amine]	0.1 to 100 nM

same assay, conditions: Homo sapiens; HT-1080 cells treated with RSL3; 3-fold, 10-point dilution, 1.1 μM highest concentration; Table 2; read-out: EC50 (nM), ferroptosis inhibitory activity

SMILES	EC50
CC1CCCCN1c1ccc(Nc2ccc3c(c2)CN(C)C3=O)cc1 (centres unmarked) [Compound 240, 2-methyl-5-((4-(2-methylpiperidin-1-yl)phenyl)amino)isoindolin-1-one]	0.1 to 100 nM
CC(=O)Nc1nn(C)c2ccc(Nc3ccc(N4CCC(C)CC4)cc3)cc12 [Compound 356, N-(1-methyl-5-((4-(4-methylpiperidin-1-yl)phenyl)amino)-1H-indazol-3-yl) acetamide]	0.1 to 100 nM
COc1cc(Nc2ccc3c(c2)OCC(=O)N3C)ccc1N1CCC(C(F)(F)F)CC1 [Compound 91, 7-((3-methoxy-4-(4-(trifluoromethyl)piperidin-1-yl)phenyl)amino)-4-methyl-2H-benzo[b][1,4]oxazin-3(4H)-one]	0.1 to 100 nM
Cc1nc(=O)n(C)c2ccc(Nc3ccc(N4CCC(C(F)(F)F)CC4)cc3)cc12 [Compound 113, 1,4-dimethyl-6-((4-(4-(trifluoromethyl)piperidin-1-yl)phenyl)amino) quinazolin-2(1H)-one]	0.1 to 100 nM
CC1CCN(c2ccc(Nc3ccc4c(c3)n(C)c(=O)n4C)cc2)CC1 [Compound 287, 1,3-dimethyl-5-((4-(4-methylpiperidin-1-yl)phenyl)amino)-1,3-dihydro-2H-benzo[d]imidazol-2-one]	0.1 to 100 nM
CN1Cc2cc(Nc3ccc(N4CCC(C(F)(F)F)CC4)cc3)cc(Cl)c2C1=O [Compound 203, 7-chloro-2-methyl-5-((4-(4-(trifluoromethyl)piperidin-1-yl)phenyl)amino) isoindolin-1-one]	0.1 to 100 nM
CCCCCOc1ccc(Nc2ccc3c(c2)OCC(=O)N3C)cc1OC [Compound 32, 7-((3-methoxy-4-(pentyloxy)phenyl)amino)-4-methyl-2H-benzo[b][1,4]oxazin-3(4H)-one]	0.1 to 100 nM
Cc1nc2ccc(Nc3ccc(N4CCC(C)CC4)cc3)cc2o1 [Compound 339, 2-methyl-N-(4-(4-methylpiperidin-1-yl)phenyl)benzo[d]oxazol-6-amine]	0.1 to 100 nM
COc1cc(N2CCC(C(F)(F)F)CC2)ccc1Nc1ccc2c(c1)n(C)c(=O)n2C [Compound 375, 5-((2-methoxy-4-(4-(trifluoromethyl)piperidin-1-yl)phenyl)amino)-1,3-dimethyl-1,3-dihydro-2H-benzo[d]imidazol-2-one]	0.1 to 100 nM
CN1Cc2cc(Nc3ccc(N4CC5(CCC5)C4)cc3)ccc2C1=O [Compound 244, 5-((4-(2-azaspiro[3.3]heptan-2-yl)phenyl)amino)-2-methylisoindolin-1-one]	0.1 to 100 nM
CN(C)c1cc(Nc2ccc3c(c2)n(C)c(=O)n3C)cc(N(C)C)c1 [Compound 277, 5-((3,5-bis(dimethylamino)phenyl)amino)-1,3-dimethyl-1,3-dihydro-2H-benzo[d]imidazol-2-one]	0.1 to 100 nM
Cc1cc(Nc2ccc3c(c2)OCC(=O)N3)cnc1N1C[C@@H](C)O[C@@H](C)C1 [Compound 151, 7-((6-(2,6-dimethylmorpholino)-5-methylpyridin-3-yl)amino)-2H-benzo[b][1,4]oxazin-3(4H)-one]	0.1 to 100 nM
FC1(F)CCN(c2ccc(Nc3ccc4c(c3)CNC4)cc2)CC1 [Compound 165, N-(4-(4,4-difluoropiperidin-1-yl)phenyl)isoindolin-5-amine]	0.1 to 100 nM
CC(C)(C)C(=O)N1Cc2ccc(Nc3ccc(N4CCC(C(F)(F)F)CC4)cc3)cc2C1 [Compound 181, 2,2-dimethyl-1-(5-((4-(4-(trifluoromethyl)piperidin-1-yl)phenyl)amino)isoindolin-2-yl)propan-1-one]	0.1 to 100 nM
CC1CCC(C)N1c1ccc(Nc2ccc3c(c2)n(C)c(=O)n3C)cc1 (centres unmarked) [Compound 254, 5-((4-(2,5-dimethylpyrrolidin-1-yl)phenyl)amino)-1,3-dimethyl-1,3-dihydro-2H-benzo[d]imidazol-2-one]	0.1 to 100 nM
Cc1cc(N2CCC(C(F)(F)F)CC2)ccc1Nc1ccc2c(c1)OCC(=O)N2 [Compound 100, 7-((2-methyl-4-(4-(trifluoromethyl)piperidin-1-yl)phenyl)amino)-2H-benzo[b][1,4]oxazin-3(4H)-one]	0.1 to 100 nM
CN1C(=O)COc2cc(Nc3ccc(N4CCC(C(F)(F)F)CC4)nc3)ccc21 [Compound 17, 4-methyl-7-((6-(4-(trifluoromethyl)piperidin-1-yl)pyridin-3-yl)amino)-2H-benzo[b][1,4]oxazin-3(4H)-one]	0.1 to 100 nM
NC(=O)NCCn1c(=O)oc2ccc(Nc3ccc(N4CCC(C(F)(F)F)CC4)cc3)cc21 [Compound 417, 1-(2-(2-oxo-5-((4-(4-(trifluoromethyl)piperidin-1-yl)phenyl)amino)benzo[d]oxazol-3(2H)-yl)ethyl)urea]	0.1 to 100 nM
CC1CCN(c2ccc(Nc3ccc4c(=O)n(C)n(C)c4c3)cc2)CC1 [Compound 250, 1,2-dimethyl-6-((4-(4-methylpiperidin-1-yl)phenyl)amino)-1,2-dihydro-3H-indazol-3-one]	0.1 to 100 nM
Cc1cc(=O)oc2cc(Nc3ccc(N4CCC(C(F)(F)F)CC4)cc3)ccc12 [Compound 119, 4-methyl-7-((4-(4-(trifluoromethyl)piperidin-1-yl)phenyl)amino)-2H-chromen-2-one]	0.1 to 100 nM
O=C1NCc2cc(Nc3ccc(N4CCC(C(F)(F)F)CC4)cc3)ccc21 [Compound 182, 5-((4-(4-(trifluoromethyl)piperidin-1-yl)phenyl)amino)isoindolin-1-one]	0.1 to 100 nM
Cn1[nH]c2cc(Nc3ccc(N4CCCCC4)cc3)ccc2c1=O [Compound 257, 2-methyl-6-((4-(piperidin-1-yl)phenyl)amino)-1,2-dihydro-3H-indazol-3-one]	0.1 to 100 nM
CCCCCN(CC)c1ccc(Nc2ccc3c(c2)OCC(=O)N3C)cc1 [Compound 30, 7-((4-(ethyl(pentyl)amino)phenyl)amino)-4-methyl-2H-benzo[b][1,4]oxazin-3(4H)-one]	0.1 to 100 nM
FC(F)(F)C1CCN(c2ccc(Nc3ccc4ocnc4c3)cc2)CC1 [Compound 359, N-(4-(4-(trifluoromethyl)piperidin-1-yl)phenyl)benzo[d]oxazol-5-amine]	0.1 to 100 nM
Cn1[nH]c2cc(Nc3ccc(N4CCC(C(F)(F)F)CC4)cc3)ccc2c1=O [Compound 191, 2-methyl-6-((4-(4-(trifluoromethyl)piperidin-1-yl)phenyl)amino)-1,2-dihydro-3H-indazol-3-one]	0.1 to 100 nM

same assay, conditions: Homo sapiens; HT-1080 cells treated with RSL3; 3-fold, 10-point dilution, 1.1 μM highest concentration; Table 3; read-out: EC50 (nM), ferroptosis inhibitory activity

SMILES	EC50
COc1cc(Nc2ccc(N3CCC(C(F)(F)F)CC3)cc2C)cc2c1NC(=O)CO2 [Compound 564, 5-methoxy-7-((2-methyl-4-(4-(trifluoromethyl)piperidin-1-yl)phenyl)amino)-2H-benzo[b][1,4]oxazin-3(4H)-one]	0.1 to 100 nM
Cc1cc(N2CCC(C(F)(F)F)CC2)ccc1Nc1ccc2c(c1)CN(C(N)=O)C2 [Compound 545, 5-((2-methyl-4-(4-(trifluoromethyl)piperidin-1-yl)phenyl)amino) isoindoline-2-carboxamide]	0.1 to 100 nM
Cc1cc(N2CCC(C(F)(F)F)C2)ccc1Nc1ccc2c(c1)OCC(=O)N2 (centres unmarked) [Compound 587, 7-((2-methyl-4-(3-(trifluoromethyl)pyrrolidin-1-yl)phenyl)amino)-2H-benzo[b][1,4]oxazin-3(4H)-one]	0.1 to 100 nM
COCCn1c(=O)n(C)c2ccc(Nc3ccc(N4CCC(C(F)(F)F)C4)cc3C)cc21 (centres unmarked) [Compound 620, 3-(2-methoxyethyl)-1-methyl-5-((2-methyl-4-(3-(trifluoromethyl)pyrrolidin-1-yl)phenyl)amino)-1,3-dihydro-2H-benzo[d]imidazol-2-one]	0.1 to 100 nM
Cc1cc(N2CC(F)C2)ccc1Nc1ccc2c(c1)OCCC(=O)N2 [Compound 610, 8-((4-(3-fluoroazetidin-1-yl)-2-methylphenyl)amino)-2,3-dihydrobenzo[b][1,4]oxazepin-4(5H)-one]	0.1 to 100 nM
COC1CCN(c2ccc(Nc3ccc4c(c3)OCC(=O)N4)c(C)c2)C1 (centres unmarked) [Compound 618, 7-{[4-(3-methoxypyrrolidin-1-yl)-2-methylphenyl]amino}-2,4-dihydro-1,4-benzoxazin-3-one]	0.1 to 100 nM
Cc1cc(N2CCC(C(F)(F)F)CC2)ccc1Nc1ccn2nccc2c1 [Compound 612, N-(2-methyl-4-(4-(trifluoromethyl)piperidin-1-yl)phenyl) pyrazolo[1,5-a]pyridin-5-amine]	0.1 to 100 nM
Cc1cc(N2CCC(C(F)(F)F)CC2)ncc1Nc1ccc2c(c1)OCC(=O)N2 [Compound 453, 7-((4-methyl-6-(4-(trifluoromethyl)piperidin-1-yl)pyridin-3-yl)amino)-2H-benzo[b][1,4]oxazin-3(4H)-one]	0.1 to 100 nM
Cc1cc(N2CCC(C(F)(F)F)CC2)ccc1Nc1ccc2c(c1)C(=O)NCC(=O)N2 [Compound 644, 7-((2-methyl-4-(4-(trifluoromethyl)piperidin-1-yl)phenyl)amino)-3,4-dihydro-1H-benzo[e][1,4]diazepine-2,5-dione]	0.1 to 100 nM
Cc1cc(N2CCC(C(F)(F)F)CC2)ccc1Nc1cc(C#N)c2c(c1)OCC(=O)N2 [Compound 468, 7-((2-methyl-4-(4-(trifluoromethyl)piperidin-1-yl)phenyl)amino)-3-oxo-3,4-dihydro-2H-benzo[b][1,4]oxazine-5-carbonitrile]	0.1 to 100 nM
CCC(C)(C)Nc1ccc(Nc2ccc3c(c2)OCC(=O)N3)c(C)c1 [Compound 659, 7-[4-(1,1-dimethylpropylamino)-2-methyl-anilino]-4H-1,4-benzoxazin-3-one]	0.1 to 100 nM
Cc1cc(N2CCC(C(F)(F)F)CC2)ccc1Nc1ccc2c(c1)SCC(=O)N2 [Compound 593, 7-((2-methyl-4-(4-(trifluoromethyl)piperidin-1-yl)phenyl)amino)-2H-benzo[b][1,4]thiazin-3(4H)-one]	0.1 to 100 nM
